The results in this text go back to patent publication US12552800B2, “Compounds for diagnosis” (AC IMMUNE SA, priority 2020, dated 2026).

In test [1] the test system is Tau aggregates. Description: Micro-autoradiography of Example-1 [^3H-1] on AD tissue. The class given is binding, human. The settings on record: AD brain tissue, compared to [3H]-Tau-Ref. The method, then: (§1) The protocol was adapted from Marquie et al., 2015. Sections were incubated with tritiated example compound 1 (Example-1 [3H-1]) or a reference Tau ligand ([3H]-Tau-Ref at 60 nM for one hour at room temperature (RT). Sections were then washed as follows: One time in ice-cold 50 mM Tris-HCl pH 7.4 buffer for one minute, two times in 70% ice-cold ethanol for one minute, one time in ice-cold 50 mM Tris-HCl pH 7.4 buffer for one minute and finally rinsed briefly in ice-cold distilled water. Sections were subsequently dried and then exposed to Ilford Nuclear Emulsion Type K5 (Agar Scientific, AGP9281) in a light-proof slide storage box. After five days, the sections were developed by immersing them successively in the following solutions: 1.) Ilford Phenisol Developer (1:5 dilution in H2O, Agar Scientific, AGP9106), 2.) Ilfostop solution (1:20 dilution in H2O, Agar Scientific, AGP9104), 3.) Ilford Hypam Fixer (1:5 dilution in H2O, Agar Scientific, AGP9183) and finally rinsed with H2O. […]

In test [2] the target is T1, a-syn pathology (Homo sapiens, UniProt P37840).
T1 construct: performed on frozen human brain sections from different a-synucleinopathy cases; from tissue; host or cells: frozen human brain sections (PD, PDD, MSA, DLB, LBV; NDC as controls)
Kind of test: Autoradiography of Example-1 [^3H-1] in brain sections from PD, PDD, MSA, LBV and NDC donors. The class given is binding. As to conditions: 10 nM. The method, then:
Frozen human brain sections from one PD case, two PDD cases, two MSA cases, one LBV case and three non-demented control (NDC) cases were first briefly fixed for 15 minutes at 4° C. with 4% paraformaldehyde (Sigma, 252549) and washed three times for five minutes with PBS (Dulbecco's phosphate buffered saline, Sigma) at RT. All slides were then equilibrated for 20 minutes in 50 mM Tris-HCl pH 7.4 buffer prior to use in the experiment. Each brain section was incubated with a fixed concentration (10 nM) of tritiated example compound 1 (Example-1 [^3H-1]) in Tris-HCl buffer for two hours at RT (Total binding, ‘Total’). […] The slides were washed and then exposed and scanned in a real-time autoradiography system (BeaQuant instrument, ai4R).

Test [3] has as its target T2, pathological a-synuclein aggregates (Homo sapiens, UniProt P37840). Description: Autoradiography of Example-1 [^3H-1] in brain sections from PD, PDD and NDC donors. The class given is binding. On the procedure:
(§2) Frozen human brain sections from one familial PD case (a-synuclein [SNCA] gene G51 D missense mutation), labelled as SNCA (G51 D), one PDD case and two non-demented control (NDC) cases were first briefly fixed for 15 minutes at 4° C. with 4% paraformaldehyde (Sigma, 252549) and washed three times for five minutes with PBS (Dulbecco's phosphate buffered saline, Sigma) at RT. All slides were then equilibrated for 20 minutes in 50 mM Tris-HCl pH 7.4 buffer prior to use in the experiment. Each brain section was incubated with a fixed concentration (10 nM) of tritiated example compound 1 (Example-1 [^3H-1]) or a reference a-syn ligand ([3H]-a-syn-Ref), or increasing concentrations of Example-1 [^3H-1] in the range of 1.25 nM to 80 nM of tritiated compound in Tris-HCl buffer for two hours at RT (Total binding, ‘−’). To determine non-specific (NS) binding Example-1 [^3H-1] or [3H]-a-syn-Ref was mixed with 1 μM of non-radiolabelled compound (Example 1 or a-syn-Ref respectively, self-block, ‘+’). The slides were washed and placed under Phosphor imaging screens (GE healthcare, BAS-IP TR 2025) in imaging cassettes. Imaging screens were scanned using a laser imaging system (Typhoon, FLA 7000) and resulting images were analyzed using the ImageJ software package.

The target of test [4] is T3, pathological a-synuclein aggregates (Homo sapiens, UniProt P37840, G51D).
T3 construct: Frozen human brain sections from one familial PD case; from tissue; host or cells: frozen human brain sections: familial PD (SNCA G51D), PDD or idiopathic PD, MSA, NDC controls
Described as above. As to conditions: Genetic PD (SNCA (G51D)) brain tissue, autoradiography. The class given is binding. On the procedure: as §2

The target in test [5] is T4, TAR DNA-binding protein 43 (TDP-43) aggregates (Homo sapiens, UniProt Q13148).
T4 construct: present in Frontotemporal Lobar Degeneration TDP (FTLD-TDP) Type C brain tissue; from tissue; host or cells: FTLD-TDP type C brain tissue sections
T4 sequence (Q13148 whole entry): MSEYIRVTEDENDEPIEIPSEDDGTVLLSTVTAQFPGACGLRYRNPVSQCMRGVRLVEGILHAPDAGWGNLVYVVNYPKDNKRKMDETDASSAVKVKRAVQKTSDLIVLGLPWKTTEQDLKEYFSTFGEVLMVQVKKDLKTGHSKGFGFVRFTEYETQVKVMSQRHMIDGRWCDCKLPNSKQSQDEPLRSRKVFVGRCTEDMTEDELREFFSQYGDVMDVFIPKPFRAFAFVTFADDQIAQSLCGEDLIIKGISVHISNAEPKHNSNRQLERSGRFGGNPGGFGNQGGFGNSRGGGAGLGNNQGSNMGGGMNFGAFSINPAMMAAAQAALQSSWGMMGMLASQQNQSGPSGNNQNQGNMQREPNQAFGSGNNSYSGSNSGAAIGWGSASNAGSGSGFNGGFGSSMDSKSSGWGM
Description: Micro-autoradiography of Example-1 [^3H-1] on FTLD-TDP type C tissue. As to conditions: FTLD-TDP Type C brain tissue. On the procedure:
as §1

Test [6] concerns the target T5, PD brain-derived a-syn aggregates (Homo sapiens, UniProt P37840).
T5 construct: from tissue; host or cells: human PD donor brain, sarkosyl-insoluble 100,000 x g pellet
Description: Saturation binding of Example-1 [^3H-1] by micro-radiobinding. The settings on record: head-to-head with [3H]-a-syn-Ref. The method, then: (§3) PD brain-derived a-syn aggregates were spotted onto microarray slides. The slides were incubated with Example-1 [^3H-1] or [3H]-a-syn-Ref at increasing concentrations in the range of 300 pM to 150 nM. After incubation, slides were washed and exposed to a phosphor storage screen (GE healthcare, BAS-IP TR 2025). Following exposure, phosphor storage screens were scanned with a laser imaging system (Typhoon FLA 7000) to readout the signal from the radiobinding experiments described above. Quantification of the signal was performed using the ImageJ software package.

Test [7] deals with T6, a-syn aggregates (Lewy bodies and Lewy neurites) (Homo sapiens, UniProt P37840).
T6 construct: performed on frozen human brain sections from different a-synucleinopathy cases; from tissue; host or cells: frozen human brain sections (PD, PDD, MSA, DLB, LBV; NDC as controls)
Description: High resolution micro-autoradiography of Example-1 [^3H-1] in a-synucleinopathy tissues. The class given is binding. As to conditions: 60 nM; PD, PDD, MSA, DLB, LBV tissue. The method, then: The protocol was adapted from Marquie et al., 2015. Sections were incubated with tritiated example compound 1 (Example-1 [3H-1]) or a reference Tau ligand ([3H]-Tau-Ref at 60 nM for one hour at room temperature (RT). Sections were then washed as follows: One time in ice-cold 50 mM Tris-HCl pH 7.4 buffer for one minute, two times in 70% ice-cold ethanol for one minute, one time in ice-cold 50 mM Tris-HCl pH 7.4 buffer for one minute and finally rinsed briefly in ice-cold distilled water. Sections were subsequently dried and then exposed to Ilford Nuclear Emulsion Type K5 (Agar Scientific, AGP9281) in a light-proof slide storage box. After five days, the sections were developed by immersing them successively in the following solutions: 1.) Ilford Phenisol Developer (1:5 dilution in H2O, Agar Scientific, AGP9106), 2.) Ilfostop solution (1:20 dilution in H2O, Agar Scientific, AGP9104), 3.) Ilford Hypam Fixer (1:5 dilution in H2O, Agar Scientific, AGP9183) and finally rinsed with H2O.
When indicated, immunostaining was also performed on the same section. For image acquisition, sections were mounted using ProLong Gold Antifade reagent (Invitrogen P36930) and imaged on a Panoramic150 Slide Scanner (3DHistech) with a 20× objective capturing separately brightfield and fluorescent images. […]

Test [8] concerns the target T2, pathological a-synuclein aggregates. Description: Autoradiography of Example-1 [^3H-1] in brain sections from PD, PDD and NDC donors. The class given is binding. Set-up: Frozen human brain sections from one familial PD case; from tissue; host or cells: frozen human brain sections: familial PD (SNCA G51D), PDD or idiopathic PD, MSA, NDC controls. As to conditions: PDD brain tissue, autoradiography. The method, then: as §2

For test [9], the target named is T7, Abeta pathological aggregates (Homo sapiens, UniProt P05067).
T7 construct: Abeta pathological aggregates present in the human AD brain homogenates; from tissue; host or cells: human AD donor brain, Triton/sucrose-insoluble 100,000 x g pellet
T7 sequence (P05067 672-713 limits assumed): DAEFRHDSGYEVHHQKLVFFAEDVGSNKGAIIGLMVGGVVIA
Kind of test: Radiobinding competition assay against [^3H]-Abeta-Ref on AD brain homogenates (example compound 1). The class given is binding. The method, then:
The procedure was adapted from the protocol described in Bagchi et al., 2013. Frozen tissue blocks from AD donors were thawed on ice and homogenized in high salt buffer (50 mM Tris-HCl pH 7.5, 0.75M NaCl, 5 mM EDTA) supplemented with protease inhibitors (Complete; Roche 11697498001) at 4° C. using a glass Dounce homogenizer. The homogenate was centrifuged at 100,000×g (38,000 RPM) in an ultracentrifuge (Beckman, XL100K) for one hour at 4° C. using a pre-cooled 70.1 rotor (Beckman, 342184). Pellets were resuspended in high salt buffer supplemented with 1% Triton X-100 and homogenized at 4° C. using a glass Dounce homogenizer. The homogenates were centrifuged again at 100,000×g (38,000 RPM, 70.1 rotor) for one hour at 4° C. Pellets were resuspended in high salt buffer supplemented with 1% Triton X-100 and 1 M sucrose and homogenized at 4° C. using a glass Dounce homogenizer. The homogenates were centrifuged at 100,000×g (38,000 RPM, 70.1 rotor) for one hour at 4° C. […]
A fixed concentration of AD insoluble fraction was incubated with a tritiated reference Abeta ligand ([^3H]-Abeta-Ref) at 10 nM and increasing concentrations of non-radiolabelled example compound 1 in the range of […] to 2 μM for two hours at RT. […] The filters were analyzed on a Microbeta2 scintillation counter (PerkinElmer). […]

Test [10] deals with T5, PD brain-derived a-syn aggregates. Description: Micro-radiobinding competition assay against [^3H]-a-syn-Ref. The test is classed as binding. On the procedure:
The procedure was adapted from the protocol described in Spillantini et al., 1998. Frozen tissue blocks from PD donors were thawed on ice and homogenized using a glass dounce homogenizer. The homogenate was then centrifuged at 11,000×g (12,700 RPM) in an ultracentrifuge (Beckman, XL100K) for 20 minutes at 4° C. using a pre-cooled 70.1 rotor (Beckman, 342184). Pellets were resuspended in extraction buffer [10 mM Tris-HCl pH 7.4, 10% sucrose, […], 1% protease inhibitor (Calbiochem 539131), 1 mM EGTA, 1% phosphatase inhibitor (Sigma P5726 and P0044)] and centrifuged at 15,000×g (14,800 RPM, a 70.1 Ti rotor) for 20 minutes at 4° C. Pellets were discarded and sarkosyl (20% stock solution, Sigma L7414) was added to the supernatants to a final concentration of 1% at room temperature for one hour. This solution was then centrifuged at 100,000×g (38,000 RPM, 70.1 Ti rotor) for one hour at 4° C. Pellets containing enriched a-syn aggregates were resuspended in PBS and stored at −80° C. until use.
as §3, with “the tritiated reference ligand, [^3H]-a-syn-Ref (as described in WO2017/153601) at 20 nM and the example compounds of this invention (non-radiolabelled) either at 1 μM” for “Example-1 [^3H-1]”, “or” for “or [3H]-a-syn-Ref”, “50” for “300”, “2 μM.” for “150 nM.”, “package. […] All measurements were performed with at least two technical replicates.” for “package.”
Example compounds were assessed for their potency to compete with the binding of [3H] radiolabelled reference ligand to PD patient brain-derived a-syn aggregates. Results of the micro-radiobinding competition assay for the example compounds tested are shown in Table 5 as: % competition at 1 μM and Ki value. All measurements were performed on the same PD brain-derived a-syn aggregates.

Structures are written as SMILES. Entries after “also recorded” stand apart in the source; their conditions may differ. Read-outs that look alike come from different tables or passages of the source.

Take `[3H]c1cncc(N2Cc3nn(-c4cnc(N5CC[C@@H](F)C5)c([3H])c4)cc3C2=O)c1` [Example-1 [^3H-1]]: the “target engagement on Tau aggregates” value in test [1] is listed as “No accumulation of silver grains on Tau tangles; also recorded: did not display specific target engagement”. The “autoradiographic signal in non-demented control cases” value in test [2] is “weak”. Moreover, in [2] (MSA, LBV, PDD cases), the “target engagement in a-synucleinopathy tissues” value is “target engagement”. The Kd (commonly a measure of binding affinity in units of concentration) in [3] (PDD and genetic PD tissue, range of both, read-out: dissociation constant (Kd)) was 11 to 13 nM; in test [4], 13 nM; in test [8], 11 nM. Further, the “binding in non-diseased tissue (NDC)” value in test [3] (autoradiography, 10 nM) was “very weak binding”. Also, in [3] (autoradiography, PDD and PD tissue, compared to [3H]-a-syn-Ref at 10 nM), the “specific binding in a-synucleinopathy brain sections” value is “improved total and excellent specific binding”. The B max in test [4] came out at 3004; in test [8] it was 1104. The “binding to TDP-43 aggregates” value in test [5] is listed as “No accumulation of silver grains on TDP-43 aggregates; also recorded: very weak to no binding”. Moreover, the binding site occupancy result in test [6] is “high and improved binding site occupancy”. Further, the “target engagement on Lewy bodies and Lewy neurites (silver grains)” value in test [7] was “Accumulation of silver grains on Lewy bodies and Lewy neurites; also recorded: strong target engagement”.
As for `O=C1c2cn(-c3ccc(N4CC[C@@H](F)C4)nc3)nc2CN1c1cccnc1` [Example 1], the Ki (usually a dissociation constant, usually derived from enzyme kinetics or from competition with a known ligand) came to 330 nM in test [9] (displacement of [^3H]-Abeta-Ref at 10 nM, AD brain-derived homogenates) and 30 nM in test [10] (displacement of [^3H]-a-syn-Ref, average of two independent experiments). Further, the “selectivity for a-syn over Abeta pathological aggregates” value in test [9] (in words) is reported as “good selectivity for a-syn over Abeta”. Also, the “binding to PD brain-derived a-syn aggregates” value in test [10] (in words) is “good binding”. Besides, the “Competition at 1 μM (%)” value in [10] (over [^3H]-a-syn-Ref at 20 nM, example compound at 1 μM) stood at 94%.
